Measured values taken from ChEMBL document CHEMBL5303764, “Data for DCP probe BI-3812” (2023).

Assays:
[1] = target: Dual specificity mitogen-activated protein kinase kinase 2 (Homo sapiens) (UniProt P36507); assay: MAP2K2 Invitrogen Lab (UK) kinase screen (BI); details: Compound concentration 1.0 uM
[2] = target: Mitogen-activated protein kinase 3 (Homo sapiens) (UniProt P27361); assay: MAPK3 Invitrogen Lab (UK) kinase screen (BI); details: Compound concentration 1.0 uM
[3] = target: Endothelin-1 receptor (Homo sapiens) (UniProt P25101); assay: ETA/H Eurofins SafetyScreen44 (BI); details: Compound concentration 10.0 uM
[4] = target: Zinc finger and BTB domain-containing protein 17 (Homo sapiens, UniProt Q13105); assay: SPR (ZBTB17), Ontario institute for cancer research
[5] = target: Kappa-type opioid receptor (Homo sapiens) (UniProt P41145); assay: KAPPA(KOP)_HU Eurofins SafetyScreen44 (BI); details: Compound concentration 10.0 uM
[6] = target: Sodium-dependent dopamine transporter (Homo sapiens) (UniProt Q01959); assay: DATRANS/HUM Eurofins SafetyScreen44 (BI); details: Compound concentration 10.0 uM
[7] = target: Serine/threonine-protein kinase PAK 4 (Homo sapiens) (UniProt O96013); assay: PAK4 Invitrogen Lab (UK) kinase screen (BI); details: Compound concentration 1.0 uM
[8] = target: Muscarinic acetylcholine receptor M4 (Homo sapiens) (UniProt P08173); details: Compound concentration 10.0 uM
[9] = target: Neuronal acetylcholine receptor; alpha4/beta2 (Homo sapiens) (UniProt P17787+P43681); assay: N_NEURO_A4B2 Eurofins SafetyScreen44 (BI); assay type: protein-complex assay; details: filed as agonist, Compound concentration 10.0 uM
[10] = target: MAO-A (amine oxidase [flavin-containing] A) (Rattus norvegicus, UniProt P21396); assay: MAO-A_ANTAG Eurofins SafetyScreen44 (BI); set-up: scale not given: the % may be the effect or the level left; details: compound concentration 10 uM, read-out: % Ctrl
[11] = target: 5-hydroxytryptamine receptor 7 (Homo sapiens) (UniProt P34969); details: Compound concentration 10.0 uM
[12] = target: voltage-gated Na+ channel (site 2) (Rattus norvegicus, UniProt F1LQQ7+O08562+O88420+O88457+P04774+P04775+P08104+P15389+P15390+Q62968); assay: NA+/SITE2/R Eurofins SafetyScreen44 (BI); assay type: protein assay; details: rat brain, probe [3H]batrachotoxinin, compound concentration 10 uM, read-out: % Ctrl
[13] = target: Interleukin-1 receptor-associated kinase 4 (Homo sapiens) (UniProt Q9NWZ3); assay: IRAK4 Invitrogen Lab (UK) kinase screen (BI); details: Compound concentration 1.0 uM
[14] = target: Serine/threonine-protein kinase Chk1 (Homo sapiens) (UniProt O14757); assay: CHEK1 Invitrogen Lab (UK) kinase screen (BI); details: Compound concentration 1.0 uM
[15] = target: T1, GABA-A receptor; anion channel (Rattus norvegicus) (UniProt O09028+P15431+P18506+P18508+P19969+P20236+P23574+P23576+P28471+P28473+P30191+P62813+P63079+P63138+Q91ZM7+Q9ES14); details: Compound concentration 10.0 uM
[16] = target: Histamine H4 receptor (Homo sapiens) (UniProt Q9H3N8); details: Compound concentration 10.0 uM
[17] = target: High affinity nerve growth factor receptor (Homo sapiens) (UniProt P04629); assay: NTRK1 Invitrogen Lab (UK) kinase screen (BI); details: Compound concentration 1.0 uM
[18] = target: Aurora kinase B (Homo sapiens) (UniProt Q96GD4); assay: AURKB Invitrogen Lab (UK) kinase screen (BI); details: Compound concentration 1.0 uM
[19] = target: Adenosine receptor A2a (Homo sapiens) (UniProt P29274); assay: A2A/H Eurofins SafetyScreen44 (BI); details: filed as antagonist, Compound concentration 10.0 uM
[20] = target: 3-phosphoinositide-dependent protein kinase 1 (Homo sapiens) (UniProt O15530); assay: PDK1 Invitrogen Lab (UK) kinase screen (BI); details: Compound concentration 1.0 uM
[21] = target: 5-hydroxytryptamine receptor 2B (Homo sapiens) (UniProt P41595); assay: 5HT2B/H AG Eurofins SafetyScreen44 (BI); details: filed as agonist, Compound concentration 10.0 uM
[22] = target: D(2) dopamine receptor (Homo sapiens) (UniProt P14416); details: Compound concentration 10.0 uM
[23] = target: T1, GABA-A receptor; anion channel (Rattus norvegicus); assay: BZD/CENTR/R Eurofins SafetyScreen44 (BI); assay type: protein-complex assay; details: Compound concentration 10.0 uM
[24] = target: Insulin receptor (Homo sapiens) (UniProt P06213); assay: INSR Invitrogen Lab (UK) kinase screen (BI); details: Compound concentration 1.0 uM
[25] = target: 3',5'-cyclic-AMP phosphodiesterase 4D (Homo sapiens) (UniProt Q08499); assay: PDE4D2 Eurofins SafetyScreen44 (BI); details: Compound concentration 10.0 uM
[26] = target: Serine/threonine-protein kinase TBK1 (Homo sapiens) (UniProt Q9UHD2); assay: TBK1 Invitrogen Lab (UK) kinase screen (BI); details: Compound concentration 1.0 uM
[27] = target: Epidermal growth factor receptor (Homo sapiens) (UniProt P00533); assay: EGFR Invitrogen Lab (UK) kinase screen (BI); details: Compound concentration 1.0 uM
[28] = target: Muscarinic acetylcholine receptor M2 (Homo sapiens) (UniProt P08172); details: Compound concentration 10.0 uM
[29] = target: Muscarinic acetylcholine receptor M2 (Homo sapiens) (UniProt P08172); assay: M2/H Eurofins SafetyScreen44 (BI); details: filed as antagonist, Compound concentration 10.0 uM
[30] = target: Sodium-dependent noradrenaline transporter (Homo sapiens) (UniProt P23975); details: Compound concentration 10.0 uM
[31] = target: Fibroblast growth factor receptor 1 (Homo sapiens) (UniProt P11362); assay: FGFR1 Invitrogen Lab (UK) kinase screen (BI); details: Compound concentration 1.0 uM
[32] = target: Myosin light chain kinase 2, skeletal/cardiac muscle (Homo sapiens) (UniProt Q9H1R3); assay: MYLK2 Invitrogen Lab (UK) kinase screen (BI); details: Compound concentration 1.0 uM
[33] = target: 5-hydroxytryptamine receptor 2A (Homo sapiens) (UniProt P28223); details: Compound concentration 10.0 uM
Rattus norvegicus = organism: Rattus norvegicus; details: Compound concentration 10.0 uM
[34] = target: MAP kinase-activated protein kinase 2 (Homo sapiens) (UniProt P49137); assay: MAPKAPK2 Invitrogen Lab (UK) kinase screen (BI); details: Compound concentration 1.0 uM
[35] = target: Muscarinic acetylcholine receptor M3 (Homo sapiens, UniProt P20309); assay: M3/H Eurofins SafetyScreen44 (BI); details: Compound concentration 10.0 uM
[36] = target: Alpha-1A adrenergic receptor (Homo sapiens) (UniProt P35348); assay: ALPHA1AH_ANTAG Eurofins SafetyScreen44 (BI); details: filed as antagonist, Compound concentration 10.0 uM
hERG (KCNH2) = hERG (KCNH2) (Homo sapiens, UniProt Q12809); assay: HERG_DOFETILIDE Eurofins SafetyScreen44 (BI); details: probe [3H]dofetilide, compound concentration 10 uM, read-out: % Ctrl
[37] = target: Serine/threonine-protein kinase PLK1 (Homo sapiens) (UniProt P53350); assay: PLK1 Invitrogen Lab (UK) kinase screen (BI); details: Compound concentration 1.0 uM

Muscarinic acetylcholine receptor M2 (Homo sapiens), sequence (P08172 whole entry): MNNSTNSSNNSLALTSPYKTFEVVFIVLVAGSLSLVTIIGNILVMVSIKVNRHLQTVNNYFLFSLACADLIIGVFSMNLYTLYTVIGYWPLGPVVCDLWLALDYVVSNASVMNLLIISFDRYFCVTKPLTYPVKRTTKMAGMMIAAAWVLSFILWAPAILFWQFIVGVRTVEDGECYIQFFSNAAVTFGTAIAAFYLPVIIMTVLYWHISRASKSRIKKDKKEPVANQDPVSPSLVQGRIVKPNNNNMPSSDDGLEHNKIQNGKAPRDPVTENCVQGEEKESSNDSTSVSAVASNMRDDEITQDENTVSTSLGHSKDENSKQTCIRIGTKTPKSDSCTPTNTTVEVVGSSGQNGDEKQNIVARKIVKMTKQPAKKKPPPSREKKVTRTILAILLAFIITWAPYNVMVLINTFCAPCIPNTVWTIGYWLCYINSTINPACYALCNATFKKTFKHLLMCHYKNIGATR
D(2) dopamine receptor (Homo sapiens), sequence (P14416 whole entry): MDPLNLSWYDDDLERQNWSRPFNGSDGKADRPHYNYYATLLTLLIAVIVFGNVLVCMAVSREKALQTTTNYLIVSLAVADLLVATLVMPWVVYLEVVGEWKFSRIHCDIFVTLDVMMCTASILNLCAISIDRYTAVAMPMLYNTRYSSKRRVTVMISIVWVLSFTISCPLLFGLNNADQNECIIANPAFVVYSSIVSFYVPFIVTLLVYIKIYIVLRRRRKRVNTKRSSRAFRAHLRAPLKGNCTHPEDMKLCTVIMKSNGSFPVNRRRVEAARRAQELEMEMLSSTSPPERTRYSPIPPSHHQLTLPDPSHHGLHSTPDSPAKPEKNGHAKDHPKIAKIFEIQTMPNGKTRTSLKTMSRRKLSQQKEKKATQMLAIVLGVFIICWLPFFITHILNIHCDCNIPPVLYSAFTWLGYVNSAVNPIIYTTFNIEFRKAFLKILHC
Histamine H4 receptor (Homo sapiens), sequence (Q9H3N8 whole entry): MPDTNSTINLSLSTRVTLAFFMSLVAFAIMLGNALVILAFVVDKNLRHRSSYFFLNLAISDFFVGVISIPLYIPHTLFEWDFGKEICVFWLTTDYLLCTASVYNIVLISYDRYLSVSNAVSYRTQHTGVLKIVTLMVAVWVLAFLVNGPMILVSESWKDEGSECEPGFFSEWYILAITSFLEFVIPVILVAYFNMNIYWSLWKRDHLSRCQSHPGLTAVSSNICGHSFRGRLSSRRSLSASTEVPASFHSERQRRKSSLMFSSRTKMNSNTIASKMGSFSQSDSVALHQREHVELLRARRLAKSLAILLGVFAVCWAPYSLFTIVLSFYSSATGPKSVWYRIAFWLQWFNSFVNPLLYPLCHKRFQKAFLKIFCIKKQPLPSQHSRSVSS
Sodium-dependent noradrenaline transporter (Homo sapiens), sequence (P23975 whole entry): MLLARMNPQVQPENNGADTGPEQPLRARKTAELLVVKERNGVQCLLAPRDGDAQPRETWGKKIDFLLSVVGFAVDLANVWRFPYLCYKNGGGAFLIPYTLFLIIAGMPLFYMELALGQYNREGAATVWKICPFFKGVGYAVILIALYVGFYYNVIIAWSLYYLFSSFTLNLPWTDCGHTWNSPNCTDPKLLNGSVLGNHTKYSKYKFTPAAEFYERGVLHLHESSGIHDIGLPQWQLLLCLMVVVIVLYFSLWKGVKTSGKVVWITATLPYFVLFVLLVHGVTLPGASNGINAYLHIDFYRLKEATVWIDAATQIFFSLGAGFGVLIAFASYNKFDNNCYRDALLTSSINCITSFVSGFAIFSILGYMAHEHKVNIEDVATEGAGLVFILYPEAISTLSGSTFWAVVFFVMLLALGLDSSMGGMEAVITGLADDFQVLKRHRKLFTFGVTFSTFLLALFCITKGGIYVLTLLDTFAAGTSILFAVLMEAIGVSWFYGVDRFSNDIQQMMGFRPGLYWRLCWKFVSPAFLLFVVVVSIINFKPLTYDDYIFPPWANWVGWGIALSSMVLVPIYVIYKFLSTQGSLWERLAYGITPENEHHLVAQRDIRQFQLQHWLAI
Muscarinic acetylcholine receptor M4 (Homo sapiens), sequence (P08173 whole entry): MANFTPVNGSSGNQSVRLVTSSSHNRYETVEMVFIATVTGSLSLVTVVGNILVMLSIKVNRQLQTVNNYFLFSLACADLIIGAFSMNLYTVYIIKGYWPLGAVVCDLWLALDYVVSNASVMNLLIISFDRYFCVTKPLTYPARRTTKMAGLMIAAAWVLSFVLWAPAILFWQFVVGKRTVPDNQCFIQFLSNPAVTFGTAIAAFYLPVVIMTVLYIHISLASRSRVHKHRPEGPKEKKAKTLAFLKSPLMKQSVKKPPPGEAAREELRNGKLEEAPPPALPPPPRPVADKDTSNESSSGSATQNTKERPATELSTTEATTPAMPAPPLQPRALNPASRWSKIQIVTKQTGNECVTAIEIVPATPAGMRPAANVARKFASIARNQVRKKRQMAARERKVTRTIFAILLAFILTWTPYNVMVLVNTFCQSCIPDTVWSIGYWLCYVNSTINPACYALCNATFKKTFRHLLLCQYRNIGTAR
5-hydroxytryptamine receptor 7 (Homo sapiens), sequence (P34969 whole entry): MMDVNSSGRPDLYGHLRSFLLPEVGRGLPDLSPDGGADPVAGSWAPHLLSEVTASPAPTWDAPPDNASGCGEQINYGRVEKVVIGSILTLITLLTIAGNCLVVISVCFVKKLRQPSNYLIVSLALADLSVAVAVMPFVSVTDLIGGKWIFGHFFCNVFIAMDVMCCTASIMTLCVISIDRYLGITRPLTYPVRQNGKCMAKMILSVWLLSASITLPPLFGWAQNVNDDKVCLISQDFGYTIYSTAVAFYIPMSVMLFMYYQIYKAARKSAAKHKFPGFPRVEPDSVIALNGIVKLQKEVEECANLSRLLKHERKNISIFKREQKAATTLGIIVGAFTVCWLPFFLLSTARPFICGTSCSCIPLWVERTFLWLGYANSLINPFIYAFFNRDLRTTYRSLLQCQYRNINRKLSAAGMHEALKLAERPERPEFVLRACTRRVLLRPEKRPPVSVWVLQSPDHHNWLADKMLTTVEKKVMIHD
5-hydroxytryptamine receptor 2A (Homo sapiens), sequence (P28223 whole entry): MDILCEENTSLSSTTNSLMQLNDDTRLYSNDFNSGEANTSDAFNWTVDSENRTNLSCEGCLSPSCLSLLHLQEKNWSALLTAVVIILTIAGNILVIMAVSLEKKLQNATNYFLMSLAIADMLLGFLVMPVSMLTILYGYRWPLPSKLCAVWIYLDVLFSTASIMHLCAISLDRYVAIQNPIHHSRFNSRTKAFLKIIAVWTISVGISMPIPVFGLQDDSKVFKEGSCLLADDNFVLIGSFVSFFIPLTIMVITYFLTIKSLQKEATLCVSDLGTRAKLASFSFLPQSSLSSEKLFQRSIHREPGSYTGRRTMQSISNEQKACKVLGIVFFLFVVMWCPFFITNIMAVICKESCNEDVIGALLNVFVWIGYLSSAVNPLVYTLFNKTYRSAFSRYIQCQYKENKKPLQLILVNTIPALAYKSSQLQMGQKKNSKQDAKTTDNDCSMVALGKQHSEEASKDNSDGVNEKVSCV
Insulin receptor (Homo sapiens), sequence (P06213 28-758 limits assumed): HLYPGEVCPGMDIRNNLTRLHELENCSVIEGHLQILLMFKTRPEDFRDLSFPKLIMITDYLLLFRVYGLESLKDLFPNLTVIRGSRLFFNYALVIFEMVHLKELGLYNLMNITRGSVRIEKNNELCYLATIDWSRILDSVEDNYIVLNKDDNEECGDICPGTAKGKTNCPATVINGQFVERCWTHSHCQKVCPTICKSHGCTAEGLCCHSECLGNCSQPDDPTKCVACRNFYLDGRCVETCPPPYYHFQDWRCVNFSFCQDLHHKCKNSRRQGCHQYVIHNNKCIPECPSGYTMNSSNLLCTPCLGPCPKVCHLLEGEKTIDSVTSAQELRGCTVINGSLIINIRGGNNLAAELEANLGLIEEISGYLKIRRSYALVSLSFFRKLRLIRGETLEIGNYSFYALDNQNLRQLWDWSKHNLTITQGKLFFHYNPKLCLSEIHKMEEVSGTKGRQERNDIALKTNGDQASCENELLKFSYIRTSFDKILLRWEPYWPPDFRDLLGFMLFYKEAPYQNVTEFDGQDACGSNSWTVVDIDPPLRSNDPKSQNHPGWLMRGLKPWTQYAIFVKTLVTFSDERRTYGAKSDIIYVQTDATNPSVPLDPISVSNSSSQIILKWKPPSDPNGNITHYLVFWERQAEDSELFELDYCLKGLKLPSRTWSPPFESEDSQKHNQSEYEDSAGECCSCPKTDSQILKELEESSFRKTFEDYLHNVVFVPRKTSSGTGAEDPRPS
Insulin receptor (Homo sapiens), sequence (P06213 763-1382 limits assumed): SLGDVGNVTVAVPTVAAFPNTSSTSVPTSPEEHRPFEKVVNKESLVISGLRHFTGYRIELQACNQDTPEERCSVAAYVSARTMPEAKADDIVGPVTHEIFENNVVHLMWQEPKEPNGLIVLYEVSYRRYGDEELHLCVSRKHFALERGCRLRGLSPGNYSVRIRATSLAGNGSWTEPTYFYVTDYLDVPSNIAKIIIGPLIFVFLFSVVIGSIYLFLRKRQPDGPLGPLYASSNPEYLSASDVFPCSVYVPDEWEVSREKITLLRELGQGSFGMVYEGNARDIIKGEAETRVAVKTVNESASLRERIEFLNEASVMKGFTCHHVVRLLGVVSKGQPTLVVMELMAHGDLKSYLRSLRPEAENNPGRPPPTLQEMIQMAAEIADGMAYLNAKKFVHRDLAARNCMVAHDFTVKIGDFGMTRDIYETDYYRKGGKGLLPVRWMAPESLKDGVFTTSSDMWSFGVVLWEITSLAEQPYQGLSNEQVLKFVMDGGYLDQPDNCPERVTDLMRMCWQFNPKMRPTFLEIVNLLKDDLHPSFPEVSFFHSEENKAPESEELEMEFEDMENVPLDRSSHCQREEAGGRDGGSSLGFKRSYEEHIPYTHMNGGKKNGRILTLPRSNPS

CNC(=O)COc1cc2cc(Nc3nc(N4CCC(C(=O)N(C)C)CC4)ncc3Cl)cc(OC)c2n(C)c1=O
103% (not active): activity at 10 µM [10]
No binding: Kd [4]
inactive: residual activity [1] 95% | residual activity [2] 95% | residual activity [3] 104% | residual activity [5] 83% | residual activity [6] 101% | residual activity [7] 82% | residual activity [9] 98% | inhibition [11] 18.2% | residual activity [13] 106% | residual activity [14] 91% | inhibition [15] 39.6% | inhibition [16] -1.33% | residual activity [17] 96% | residual activity [18] 89% | residual activity [19] 86% | residual activity [20] 83% | residual activity [21] 131% | inhibition [22] 1.86% | residual activity [23] 125% | residual activity [24] 93% | residual activity [25] 121% | residual activity [26] 97% | residual activity [27] 100% | inhibition [28] 19.5% | inhibition [30] 4.8% | residual activity [31] 86% | residual activity [32] 101% | inhibition [33] 7.86% | inhibition (Rattus norvegicus) 49.5% | residual activity [34] 91% | residual activity [35] 88% | residual activity [36] 99% | residual activity [37] 100%
92% (not active): activity at 10 µM (hERG (KCNH2))
84% (not active): activity at 10 µM [12]
active: inhibition [8] 74.1% | residual activity [29] 13%
